The record followed here is PubChem BioAssay (NCI).

The structures appear in SMILES notation.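 Values below derive from 48-hour exposures of cells grown in 96-well plates, with endpoints linearly interpolated between the two concentrations bracketing the appropriate inhibition level. TGI marks complete inhibition of growth.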

In the first assay the test system is A498 renal. Briefly: NCI anticancer screen, dose series, 48 h.
On to `C[C@]12CCC(=O)C=C1CC[C@@H]1[C@@H]2CC[C@]2(C)C(=O)NC(=O)C[C@@H]12`, for which the TGI was > 100 µM.
On the same count and under the same terms, for `COc1cc2c(oc(=O)c3c4oc([Si](C)(C)C)cc4cc(OC)c23)c2cccc(OCc3ccccc3)c12` the value was > 100 µM.
`CC(=O)OCC1=C(CCC#N)N2C(=O)C(NC(=O)Cc3cccs3)C2S(=O)C1` (stereo not given): the TGI was > 100 µM.
As for `O=C1CCCCC/C1=C\c1cccc(Cl)c1`, the TGI is > 100 µM.
With `COC(=O)N/N=C(\Cc1ccccc1)CN(C)C`, the TGI was > 100 µM.
As for `Nc1ncnn2c(C3OC(CO)C(O)C3O)ccc12` (stereo not given), the TGI came out at 0.539 µM.
For `COc1ccc2c3c1O[C@]1(C)C34CCN(C)C(C2)C42C=C[C@@]1(OC)c1c(O)ccc(O)c12`, the TGI is > 100 µM.
Still for that read-out and setting: for `C[N+](C)(C)CC(=O)N/N=C/c1oc(-c2c(O)ccc3ccccc23)c(-c2c(O)ccc3ccccc23)c1[N+](=O)[O-]` the value was 31.6 µM; for `COC(=O)[C@@H]1CN(C(C)=O)C(=O)N1`, > 100 µM; for `COC(=O)c1ccc(C)cc1CC1Cc2cc(C)ccc2C1=O` (stereo not given), > 100 µM.
For the compound `C/C(CC(=O)Nc1ccc([N+](=O)[O-])cc1)=N\NC(N)=O`, the TGI was > 100 µM.
Regarding `CCOC(=O)c1cccn1S(=O)(=O)c1cc(Cl)ccc1NC(=O)CC`, the TGI is > 100 µM.
In the case of `CCCCOC(=O)C1C2CCC(O2)C1C(=O)OCCCC` (stereo not given), the TGI was > 100 µM.
Take `CSc1nc(C#N)c(/N=C\N(C)C)n1C`: the TGI was > 100 µM.

In a further assay the test system is A549 NSCLC. Briefly: NCI anticancer screen, dose series, 48 h.
Regarding `O=C1/C(=C/c2cccc(Br)c2)CCc2ccccc21`, the TGI was determined as 34.6 µM.
Same read-out and setting: for `C[C@]12CCC(=O)C=C1CC[C@@H]1[C@@H]2CC[C@]2(C)C(=O)NC(=O)C[C@@H]12` the value was > 100 µM; for `COc1cc2c(oc(=O)c3c4oc([Si](C)(C)C)cc4cc(OC)c23)c2cccc(OCc3ccccc3)c12`, > 100 µM; for `CC(=O)OCC1=C(CCC#N)N2C(=O)C(NC(=O)Cc3cccs3)C2S(=O)C1` (stereo not given), > 100 µM.
Regarding `O=c1c2c(oc3ccccc13)-c1ccccc1OC2`, the TGI is > 100 µM.
In the case of `CCSc1[nH]c(NC(=S)NC(=O)c2ccccc2Cl)c(C(N)=O)c1C(N)=O`, the TGI was > 10 µM.
Still for that read-out and setting: the figure for `O=C1CCCCC/C1=C\c1cccc(Cl)c1` is > 100 µM; for `COC(=O)N/N=C(\Cc1ccccc1)CN(C)C` it is > 100 µM.
On the same count and under the same terms, the figure for `Nc1ncnn2c(C3OC(CO)C(O)C3O)ccc12` (stereo not given) is 3.14 µM; for `COc1ccc2c3c1O[C@]1(C)C34CCN(C)C(C2)C42C=C[C@@]1(OC)c1c(O)ccc(O)c12` it is > 100 µM.
As for `C[N+](C)(C)CC(=O)N/N=C/c1oc(-c2c(O)ccc3ccccc23)c(-c2c(O)ccc3ccccc23)c1[N+](=O)[O-]`, the TGI was determined as 81.5 µM.
Still for that read-out and setting: the figure for `COC(=O)[C@@H]1CN(C(C)=O)C(=O)N1` is > 100 µM; for `COC(=O)c1ccc(C)cc1CC1Cc2cc(C)ccc2C1=O` (stereo not given) it is > 100 µM.
With `C/C(CC(=O)Nc1ccc([N+](=O)[O-])cc1)=N\NC(N)=O`, the TGI was > 100 µM.
On to `CCOC(=O)c1cccn1S(=O)(=O)c1cc(Cl)ccc1NC(=O)CC`, for which the TGI was > 100 µM.
As to `CCCCOC(=O)C1C2CCC(O2)C1C(=O)OCCCC` (stereo not given), the TGI is > 100 µM.
For the compound `CSc1nc(C#N)c(/N=C\N(C)C)n1C`, the TGI is > 100 µM.

In another assay the test system is COLO 205 colon. Briefly: NCI anticancer screen, dose series, 48 h.
Take `O=C1/C(=C/c2cccc(Br)c2)CCc2ccccc21`: the TGI worked out at 40.8 µM.
As to `C[C@]12CCC(=O)C=C1CC[C@@H]1[C@@H]2CC[C@]2(C)C(=O)NC(=O)C[C@@H]12`, the TGI is > 100 µM.
On the same count and under the same terms, for `COc1cc2c(oc(=O)c3c4oc([Si](C)(C)C)cc4cc(OC)c23)c2cccc(OCc3ccccc3)c12` the value was > 100 µM; for `CC(=O)OCC1=C(CCC#N)N2C(=O)C(NC(=O)Cc3cccs3)C2S(=O)C1` (stereo not given), > 100 µM; for `CCSc1[nH]c(NC(=S)NC(=O)c2ccccc2Cl)c(C(N)=O)c1C(N)=O`, > 10 µM.
Still for that read-out and setting: for `O=C1CCCCC/C1=C\c1cccc(Cl)c1` the value was > 100 µM.
For the compound `COC(=O)N/N=C(\Cc1ccccc1)CN(C)C`, the TGI was > 100 µM.
As for `Nc1ncnn2c(C3OC(CO)C(O)C3O)ccc12` (stereo not given), the TGI was found to be 0.762 µM.
For the compound `COc1ccc2c3c1O[C@]1(C)C34CCN(C)C(C2)C42C=C[C@@]1(OC)c1c(O)ccc(O)c12`, the TGI is > 100 µM.
Still for that read-out and setting: for `C[N+](C)(C)CC(=O)N/N=C/c1oc(-c2c(O)ccc3ccccc23)c(-c2c(O)ccc3ccccc23)c1[N+](=O)[O-]` the value was 42.2 µM; for `COC(=O)[C@@H]1CN(C(C)=O)C(=O)N1`, > 100 µM.
For `COC(=O)c1ccc(C)cc1CC1Cc2cc(C)ccc2C1=O` (stereo not given), the TGI was > 100 µM.
For the compound `C/C(CC(=O)Nc1ccc([N+](=O)[O-])cc1)=N\NC(N)=O`, the TGI is > 100 µM.
On to `CCOC(=O)c1cccn1S(=O)(=O)c1cc(Cl)ccc1NC(=O)CC`, for which the TGI was determined as 65.4 µM.
For `CCCCOC(=O)C1C2CCC(O2)C1C(=O)OCCCC` (stereo not given), the TGI was > 57.3 µM.
With `CSc1nc(C#N)c(/N=C\N(C)C)n1C`, the TGI was > 100 µM.

The test system of the next assay is DU-145 prostate. The assay is described as follows: NCI anticancer screen, dose series, 48 h.
With `O=C1/C(=C/c2cccc(Br)c2)CCc2ccccc21`, the TGI worked out at 30.9 µM.
The same measure, in the same setting: the figure for `O=c1c2c(oc3ccccc13)-c1ccccc1OC2` is > 100 µM; for `CCSc1[nH]c(NC(=S)NC(=O)c2ccccc2Cl)c(C(N)=O)c1C(N)=O` it is > 10 µM; for `O=C1CCCCC/C1=C\c1cccc(Cl)c1` it is > 100 µM.
The compound `Nc1ncnn2c(C3OC(CO)C(O)C3O)ccc12` (stereo not given) displayed a TGI of 0.74 µM.
On the same count and under the same terms, for `C[N+](C)(C)CC(=O)N/N=C/c1oc(-c2c(O)ccc3ccccc23)c(-c2c(O)ccc3ccccc23)c1[N+](=O)[O-]` the value was 47.6 µM; for `COC(=O)[C@@H]1CN(C(C)=O)C(=O)N1`, > 100 µM.
As to `CCOC(=O)c1cccn1S(=O)(=O)c1cc(Cl)ccc1NC(=O)CC`, the TGI was > 100 µM.
In the case of `CSc1nc(C#N)c(/N=C\N(C)C)n1C`, the TGI is > 100 µM.

For the next assay, the system named is EKVX NSCLC. Briefly: NCI anticancer screen, dose series, 48 h.
`O=C1/C(=C/c2cccc(Br)c2)CCc2ccccc21`: the TGI amounted to 32.7 µM.
On to `C[C@]12CCC(=O)C=C1CC[C@@H]1[C@@H]2CC[C@]2(C)C(=O)NC(=O)C[C@@H]12`, for which the TGI was > 100 µM.
In the case of `COc1cc2c(oc(=O)c3c4oc([Si](C)(C)C)cc4cc(OC)c23)c2cccc(OCc3ccccc3)c12`, the TGI was > 100 µM.
Consider `CC(=O)OCC1=C(CCC#N)N2C(=O)C(NC(=O)Cc3cccs3)C2S(=O)C1` (stereo not given), for which the TGI is > 100 µM.
Same read-out and setting: for `O=c1c2c(oc3ccccc13)-c1ccccc1OC2` the value was > 100 µM; for `CCSc1[nH]c(NC(=S)NC(=O)c2ccccc2Cl)c(C(N)=O)c1C(N)=O`, > 10 µM.
Regarding `O=C1CCCCC/C1=C\c1cccc(Cl)c1`, the TGI was > 100 µM.
For `COC(=O)N/N=C(\Cc1ccccc1)CN(C)C`, the TGI was > 100 µM.
Turning to `Nc1ncnn2c(C3OC(CO)C(O)C3O)ccc12` (stereo not given), the TGI came out at 4.23 µM.
On the same count and under the same terms, the figure for `COc1ccc2c3c1O[C@]1(C)C34CCN(C)C(C2)C42C=C[C@@]1(OC)c1c(O)ccc(O)c12` is > 100 µM; for `C[N+](C)(C)CC(=O)N/N=C/c1oc(-c2c(O)ccc3ccccc23)c(-c2c(O)ccc3ccccc23)c1[N+](=O)[O-]` it is 45 µM.
For `COC(=O)[C@@H]1CN(C(C)=O)C(=O)N1`, the TGI is > 100 µM.
The same measure, in the same setting: the figure for `COC(=O)c1ccc(C)cc1CC1Cc2cc(C)ccc2C1=O` (stereo not given) is > 100 µM.
Regarding `C/C(CC(=O)Nc1ccc([N+](=O)[O-])cc1)=N\NC(N)=O`, the TGI was > 100 µM.
